Drawing on PubChem BioAssay (NCI), this text covers GI50 and TGI for eight compounds.

Among the test systems are OVCAR-4 ovarian; SR leukemia; EKVX NSCLC; HCC-2998 colon; TK-10 renal; K-562 leukemia; HCT-15 colon; CCRF-CEM leukemia; COLO 205 colon; UACC-62 melanoma.
Common to all, as to assay: NCI-60 cell line screen, 48 h

Molecules are shown by their SMILES. Values joined by “and” are separate entries in the source; they are usually repeats but may differ in a detail not shown here. Equal entries are not always repeated.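 Compound exposure: 48 hours, 5 concentrations, 96-well plates. At the GI50, growth is halved. TGI: concentration producing complete growth inhibition.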 Some results are limits rather than exact numbers.

For the compound `C=C1C(=O)O[C@H]2[C@H]1CC/C(COC(=O)NCCCCNC(=O)OC/C1=C/CC[C@@]3(C)O[C@H]3[C@H]3OC(=O)C(=C)[C@@H]3CC1)=C\CC[C@@]1(C)O[C@@H]21`, the GI50 in the assay on OVCAR-4 ovarian was 1.77 µM; with SR leukemia it was 0.549 µM; in the assay on EKVX NSCLC, 3.69 µM; in the assay on HCC-2998 colon, 2.35 µM; in the assay with TK-10 renal, 1.61 µM; in the assay with K-562 leukemia, 0.665 µM. Further, the GI50 in the assay with HCT-15 colon was 5.61 µM; in the assay with CCRF-CEM leukemia, 0.272 µM; in the assay on COLO 205 colon it was 0.466 µM; in the assay with UACC-62 melanoma it was 0.753 µM. For the same compound, the TGI with OVCAR-4 ovarian turned out to be 8.53 µM; in the assay on SR leukemia, 3.51 µM; in the assay with EKVX NSCLC it was 13.5 µM; with HCC-2998 colon it was 4.78 µM; in the assay with TK-10 renal it was 4.12 µM; with K-562 leukemia, 10.4 µM. In addition, the TGI was found to be 20.8 µM with HCT-15 colon, 0.845 µM in the assay with CCRF-CEM leukemia, 1.8 µM in the assay on COLO 205 colon and 2.5 µM with UACC-62 melanoma.
For `NS(=O)(=O)c1ccc(-c2ccc3c(NC(=O)C4CC4)n[nH]c3c2)cc1`, the GI50 in the assay with OVCAR-4 ovarian, in the assay on SR leukemia, in the assay with EKVX NSCLC, with HCC-2998 colon, in the assay with TK-10 renal and in the assay with K-562 leukemia was > 25 µM throughout. In addition, the GI50 in the assay with HCT-15 colon, with CCRF-CEM leukemia, with COLO 205 colon and in the assay on UACC-62 melanoma was > 25 µM in each case. Besides, the TGI in the assay with OVCAR-4 ovarian, with SR leukemia, with EKVX NSCLC, in the assay on HCC-2998 colon, in the assay with TK-10 renal and in the assay on K-562 leukemia was > 25 µM throughout. For the same compound, the TGI in the assay on HCT-15 colon, in the assay on CCRF-CEM leukemia, in the assay on COLO 205 colon and in the assay on UACC-62 melanoma was > 25 µM in each case.
For the compound `COc1ccc(-c2[nH]c3ccc(OC)cc3c2/C=C(\C#N)S(=O)(=O)c2ccccc2)cc1`, the GI50 with OVCAR-4 ovarian is 2.09 µM; in the assay on SR leukemia it was 0.305 µM; in the assay on EKVX NSCLC it was 3.21 µM; in the assay on HCC-2998 colon, 1.95 µM; in the assay with TK-10 renal it was 4.56 µM; in the assay with K-562 leukemia, 0.475 µM. Moreover, the GI50 is 0.614 µM in the assay on HCT-15 colon, 0.894 µM in the assay with CCRF-CEM leukemia, 0.396 µM in the assay with COLO 205 colon and 0.644 µM with UACC-62 melanoma. In addition, the TGI with OVCAR-4 ovarian is > 100 µM; in the assay with SR leukemia, 2.6 µM; in the assay with EKVX NSCLC, > 100 µM; with HCC-2998 colon, 5.87 µM; with TK-10 renal it was > 100 µM; in the assay with HCT-15 colon, > 100 µM. The TGI in the assay on CCRF-CEM leukemia is 6.19 µM; with COLO 205 colon it was 1.83 µM; in the assay on UACC-62 melanoma, > 61.1 µM.
As for `CCCCC(CC)COC(=O)C[N+](C)(C)CCOC(c1ccccc1)c1ccccc1` (configuration not stated), the GI50 with OVCAR-4 ovarian is 2.4 µM; with SR leukemia, 2.18 µM; in the assay on EKVX NSCLC it was 3.76 µM; with HCC-2998 colon, 1.75 µM; with TK-10 renal, 4.26 µM; in the assay with K-562 leukemia, 3.23 µM. The GI50 in the assay on HCT-15 colon was 13.8 µM; with CCRF-CEM leukemia, 3.17 µM; in the assay with COLO 205 colon, 1.93 µM; in the assay on UACC-62 melanoma, 1.67 µM. Moreover, the TGI in the assay on OVCAR-4 ovarian came out at 6.99 µM; in the assay on SR leukemia it was 5.16 µM; in the assay with EKVX NSCLC, 15.9 µM; in the assay on HCC-2998 colon it was 3.29 µM; in the assay on TK-10 renal it was 17.6 µM; in the assay with K-562 leukemia, 11.6 µM. Besides, the TGI in the assay with HCT-15 colon was 31.2 µM; in the assay on CCRF-CEM leukemia it was 11.7 µM; in the assay with COLO 205 colon it was 4.12 µM; in the assay on UACC-62 melanoma, 3.16 µM.
Take `COc1ccc(C2=C(Cl)c3cc(OC)c(OC)cc3C2Cl)cc1` (configuration not stated): the TGI in the assay on OVCAR-4 ovarian is 35.4 µM; in the assay on SR leukemia, > 100 µM; with EKVX NSCLC, 66.5 µM; in the assay with HCC-2998 colon, 28.1 µM; in the assay with TK-10 renal it was 47.5 µM; in the assay on K-562 leukemia, > 53.1 µM. For the same compound, the TGI with HCT-15 colon was 30.6 µM; in the assay with CCRF-CEM leukemia, 21 µM; in the assay with COLO 205 colon, 33.4 µM; in the assay with UACC-62 melanoma, 31.4 µM.
Regarding `CN(C)CCC1(C2=CCCC2)CC/C(=C\c2ccc(Cl)cc2)C1=O` (configuration not stated), the TGI with OVCAR-4 ovarian was 21.5 µM; in the assay on SR leukemia, 7.42 µM; in the assay with EKVX NSCLC, 18.8 µM; in the assay on HCC-2998 colon, 20.2 µM; with TK-10 renal, 23.3 µM; in the assay on K-562 leukemia it was > 23.2 µM. Moreover, the TGI is 16.6 µM in the assay with HCT-15 colon, > 22.7 µM in the assay on CCRF-CEM leukemia, 28.3 µM in the assay with COLO 205 colon and 9.05 µM with UACC-62 melanoma.
Consider `CN1CCN(CCCNc2nc3ccc(Oc4ccc(NC(=O)Nc5cc(C(F)(F)F)ccc5F)cc4)cc3[nH]2)CC1`, for which the GI50 was 5.88 µM in the assay on OVCAR-4 ovarian; 6.33 µM in the assay with SR leukemia; 6.69 µM in the assay on EKVX NSCLC; 4.35 µM with HCC-2998 colon; 3.93 µM in the assay on TK-10 renal; 4.84 µM in the assay with K-562 leukemia. For the same compound, the GI50 in the assay with HCT-15 colon is > 25 µM; in the assay with CCRF-CEM leukemia it was 4.96 µM; in the assay with COLO 205 colon it was 4.5 µM; in the assay with UACC-62 melanoma it was 4.1 µM. Further, the TGI is > 19.5 µM in the assay with OVCAR-4 ovarian; > 16.8 µM with SR leukemia; > 25 µM with EKVX NSCLC; 8.1 µM in the assay with HCC-2998 colon; 9.07 µM in the assay with TK-10 renal; 11.1 µM with K-562 leukemia. The TGI in the assay on HCT-15 colon was > 25 µM; in the assay on CCRF-CEM leukemia, 10.8 µM; with COLO 205 colon, 7.97 µM; in the assay with UACC-62 melanoma it was 7.66 µM.
For `CC1=CC(=O)C=CC1=O`, the GI50 with OVCAR-4 ovarian was 15.1 µM; in the assay on SR leukemia it was 1.63 µM and 9.34 µM; in the assay on EKVX NSCLC it was 17 µM; in the assay with HCC-2998 colon, 13.2 µM and 18.6 µM; with TK-10 renal, 20.8 µM and 16.9 µM; in the assay on K-562 leukemia, 3 µM and 4.38 µM. Besides, the GI50 in the assay with HCT-15 colon was 19.1 µM and 13.2 µM; with CCRF-CEM leukemia, 2.73 µM; in the assay with COLO 205 colon, 13.4 µM and 12.1 µM; with UACC-62 melanoma, 28.2 µM and 13.7 µM. Further, the TGI with OVCAR-4 ovarian was 30.4 µM; in the assay on EKVX NSCLC, 39.6 µM; with HCC-2998 colon, 26.2 µM and 35.4 µM; in the assay with TK-10 renal it was 36.4 µM and 30.7 µM; in the assay on HCT-15 colon, 38 µM and 29 µM; with CCRF-CEM leukemia it was 10.5 µM. The TGI in the assay with COLO 205 colon is 27.3 µM and 25 µM; in the assay with UACC-62 melanoma it was 27.2 µM.
